Here are results for 16 molecules from ChEMBL document CHEMBL1151135, “The Chemistry of Taxol, a Clinically Useful Anticancer Agent” (1990).

Values after ≈ are worked out from the molar mass of the structure shown.

One assay is filed under the species Bos taurus. The assay is described as follows: Inhibition of bovine brain tubulin assembly assessed as drug level causing decrease in tubulin depolymerization rate.
In a further assay the test system is KB. Briefly: Cytotoxicity against human KB cells. Format: functional. As to conditions: for EC50: Homo sapiens, KB, read-out: ED50 (the source's name).
Another assay has as its system J774.2. Briefly: Cytotoxicity against mouse J774.2 cells. Format: functional.

In the case of `CC(=O)O[C@H]1C(=O)[C@@]2(C)[C@H]([C@H](OC(=O)c3ccccc3)[C@]3(O)C[C@H](OC(=O)[C@H](O)[C@@H](NC(=O)c4ccccc4)c4ccccc4)C(C)=C1C3(C)C)[C@]1(OC(C)=O)CO[C@@H]1C[C@@H]2O`, the ID50 in the assay filed under Bos taurus was 100 nM. On to `CC(=O)O[C@H]1C(=O)[C@]2(C)[C@@H](OC(C)=O)C[C@H]3OC[C@@]3(OC(C)=O)[C@H]2[C@H](OC(=O)c2ccccc2)[C@]2(O)C[C@H](OC(=O)[C@H](OC(C)=O)[C@@H](NC(=O)c3ccccc3)c3ccccc3)C(C)=C1C2(C)C`, for which the EC50 with KB is 0.03 µg/mL (≈ 0.032 µM). Still for that read-out and setting: the result for `CC(=O)OC[C@@]1(O)[C@H]2[C@H](OC(=O)c3ccccc3)[C@]3(O)C[C@H](OC(=O)[C@H](O)[C@@H](NC(=O)c4ccccc4)c4ccccc4)C(C)=C([C@@H](OC(C)=O)C(=O)[C@]2(C)[C@@H](O)C[C@@H]1O)C3(C)C` reads 0.2 µg/mL (≈ 0.229 µM). Regarding `CC(=O)O[C@H]1C(=O)[C@]2(C)[C@@H](OC(=O)c3ccccc3)C[C@H]3OC[C@@]3(OC(C)=O)[C@H]2[C@H](OC(=O)c2ccccc2)[C@]2(O)C[C@H](OC(=O)[C@H](O)[C@@H](NC(=O)c3ccccc3)c3ccccc3)C(C)=C1C2(C)C`, in the assay filed under Bos taurus, the ID50 was 170 nM. As to `CC(=O)O[C@@]12CO[C@@H]1C[C@H](O)[C@@]1(C)C(=O)[C@H](O)C3=C(C)[C@@H](O)C[C@@](O)([C@@H](OC(=O)c4ccccc4)[C@H]21)C3(C)C`, the EC50 with KB stood at 1 µg/mL (≈ 1.84 µM).

For the molecule `CC(=O)O[C@H]1C(=O)[C@@H](C)C([C@@]2(OC(C)=O)CCC(=O)OC2)[C@H](OC(=O)c2ccccc2)[C@]2(O)C[C@H](OC(=O)[C@H](O)[C@@H](NC(=O)c3ccccc3)c3ccccc3)C(C)=C1C2(C)C` (stereo partly specified), the EC50 with KB was found to be 2 µg/mL (≈ 2.34 µM). Still for that read-out and setting: with `CC(=O)O[C@H]1C[C@H]2OC[C@@]2(OC(C)=O)[C@H]2[C@H](OC(=O)c3ccccc3)[C@]3(O)C[C@H](OC(=O)[C@H](OC(C)=O)[C@@H](NC(=O)c4ccccc4)c4ccccc4)C(C)=C([C@@H](O)C(=O)[C@]12C)C3(C)C` the figure was less than 0.01 µg/mL. The molecule `CC(=O)O[C@H]1C(=O)[C@]2(C)[C@H](O)C[C@H]3OC[C@@]3(OC(C)=O)[C@H]2[C@H](OC(=O)c2ccccc2)[C@]2(O)C[C@H](OC(=O)[C@H](O)[C@@H](NC(=O)c3ccccc3)c3ccccc3)C(C)=C1C2(C)C` came in with an ED50 in the assay on KB of 3 ×10⁻⁵ ug/ml. In the case of `C=C(C)[C@@]12C[C@H](OC(=O)[C@H](OC(C)=O)[C@@H](NC(=O)c3ccccc3)c3ccccc3)C(C)=C1[C@@H](OC(C)=O)C(=O)[C@]1(C)[C@@H](OC(C)=O)C[C@H](OC(C)=O)[C@@](O)(COC(C)=O)[C@H]1[C@@H]2OC(=O)c1ccccc1`, the EC50 in the assay on KB is 2.5 µg/mL (≈ 2.55 µM). As to `CC(=O)O[C@@]12CO[C@@H]1C[C@H](O)[C@@]1(C)C(=O)C(=O)C3=C(C)[C@@H](OC(=O)[C@H](O)[C@@H](NC(=O)c4ccccc4)c4ccccc4)C[C@@](O)([C@@H](OC(=O)c4ccccc4)[C@H]21)C3(C)C`, the EC50 in the assay with KB is 0.02 µg/mL (≈ 0.0247 µM). Still for that read-out and setting: the result for `CC(=O)O[C@H]1C(=O)[C@]2(C)C(=O)C[C@H]3OC[C@@]3(OC(C)=O)[C@H]2[C@H](OC(=O)c2ccccc2)[C@]2(O)C[C@H](OC(=O)C(=O)[C@@H](NC(=O)c3ccccc3)c3ccccc3)C(C)=C1C2(C)C` reads 12 µg/mL (≈ 14.1 µM); that for `CC(=O)O[C@H]1C(=O)[C@]2(C)C(=O)C[C@H]3OC[C@@]3(OC(C)=O)[C@H]2[C@H](OC(=O)c2ccccc2)[C@]2(O)C[C@H](OC(=O)[C@H](O)[C@@H](NC(=O)c3ccccc3)c3ccccc3)C(C)=C1C2(C)C`, 0.5 µg/mL (≈ 0.587 µM). In the case of `CC(=O)O[C@H]1C(=O)[C@@]2(C)[C@H]([C@H](OC(=O)c3ccccc3)[C@]3(O)C[C@H](OC(=O)[C@H](OC(C)=O)[C@@H](NC(=O)c4ccccc4)c4ccccc4)C(C)=C1C3(C)C)[C@]1(OC(C)=O)CO[C@@H]1C[C@@H]2O`, in the assay on J774.2, the ED50 is recorded as 3 ×10⁻⁷ M. Take `CC(=O)O[C@H]1C(=O)[C@]2(C)[C@@H](OC(=O)c3ccc(C4(C(F)(F)F)N=N4)cc3)C[C@H]3OC[C@@]3(OC(C)=O)[C@H]2[C@H](OC(=O)c2ccccc2)[C@]2(O)C[C@H](OC(=O)[C@H](O)[C@@H](NC(=O)c3ccccc3)c3ccccc3)C(C)=C1C2(C)C`: the ID50 in the assay listed under Bos taurus amounted to 340 nM.

Take `CC(=O)O[C@H]1C(=O)[C@]2(C)[C@@H](OC(C)=O)C[C@H]3OC[C@@]3(OC(C)=O)[C@H]2[C@H](OC(=O)c2ccccc2)[C@]2(O)C[C@H](OC(=O)[C@H](O)[C@@H](NC(=O)c3ccccc3)c3ccccc3)C(C)=C1C2(C)C` [PACLITAXEL C7 ACETYLCARBOXYLIC ACID ESTER]: in the assay on J774.2, the ED50 is listed as 9 ×10⁻⁸ M. Take `C=C1[C@@H](O)C[C@@H](OC(C)=O)[C@@]2(C)[C@@H](OC(C)=O)[C@H](OC(C)=O)C3=C(C)[C@@H](OC(C)=O)C[C@@](O)([C@@H](OC(C)=O)[C@H]12)C3(C)C` [DECINNAMOYLTAXININE]: the EC50 in the assay with KB was 28 µg/mL (≈ 47.1 µM).
